The series can be described thus: In vitro skin permeation, Franz-type diffusion cells, with light device irradiation. In kind it is in vitro ADME, pig. The conditions noted are these: Fucicort cream 4 mg/cm^2 on SC, p<0.005.

Structures are written as SMILES.

Experimental: Full Thickness skin is removed from the back of pig ears. The subcutaneous tissue is removed and the skin is mounted in open two-chamber Franz-type diffusion cells (diffusion area: 3.14 cm^−2; recipient volume: 10 ml). Temperature is kept at 32° C. at the skin surface. Recipient phase is a 0.05 M isotonic acetate buffer, pH 4.5, and 2-propanol (80:20%, vol/vol). The experiments are carried out under sink condition.
The test formulation (4 mg/cm^2) is applied to the stratum corneum (SC) side of the skin. The treatment is reapplied at 3, 21, 27, 45, and 51 h, which simulates the actual dosage regimen in patients. At appropriate times (3, 21, 27, 45, 51, and 70 h) a specific amount of recipient phase is withdrawn and replaced by thermostated fluid. Samples are kept at 4° C. for a maximum of 2 days until high-performance liquid chromatography (HPLC) analysis. All permeation experiments are carried out in 6 replicates.
The same experiment as described above is carried out.
The same experiment as described above is carried out. Again, the skin is irradiated for 2 h after each application of the cream, but with the devices Dev4-6 of Example 4 in three separate runs, one run for each device. The devices are positioned directly above the SC. If the cream is applied or reapplied the light emitting device is repositioned on the SC 5 minutes afterwards. After having the skin irradiated for 1 h, the irradiation source is removed from the skin. Again samples of the recipient are taken and analyzed by HPLC in time intervals given above.

As to `C[C@H]1C[C@H]2[C@@H]3CCC4=CC(=O)C=C[C@]4(C)[C@@]3(F)[C@@H](O)C[C@]2(C)[C@@]1(O)C(=O)CO` [betamethasone], the “permeation enhanced as compared to the control experiment” value is, setting by setting: (skin irradiated for 30 min with IR device Dev5, positioned 5 minutes after application) 20%; (skin irradiated for 2 h after each application with IR devices Dev4-6, one run each, all three devices) “more than 27%”; (skin irradiated for 2 h after each application with device Dev1 (red OLED), recipient samples by HPLC) 14%.

(Values after patent publication US9597527B2, “Enhancement of penetration and action” (Merck Patent GmbH, priority 2010, dated 2017).)
